For data set [1] the following is noted: cited from earlier work.
The conditions of data set [2]: parenteral, weight basis; cited from earlier work.
The conditions of data set [3]: cited from earlier work. This is another data set of the same source.
The subject of another data set is male Sprague-Dawley rats. The conditions noted are these: rat, in vivo.
Where [4] appears, read: intravenous, single dose of about 0.3 mg.

The source of these data is US20050075361A1 (priority 2002, published 2005).

Molecules are shown by their SMILES. Read-outs that look alike come from different tables or passages of the source.

By Cmax is commonly meant the highest concentration seen after dosing. Broadly, the Tmax is the time from dosing to the highest level. Turning to `CO[C@@]12CCC3(C[C@@H]1C(C)(O)C(C)(C)C)[C@H]1Cc4ccc(O)c5c4[C@@]3(CCN1CC1CC1)[C@H]2O5` (stereo partly drawn) [Buprenorphine, (5α,7α(S)-17-cyclopropyl-methyl)-α-(1,1-dimethylethyl)-4,5-epoxy-18,19-dihydro-3-hydroxy-6-methoxy-α-methyl-6,14-ethenomorphinan-7-methanol], in data set [1] (intramuscular or intravenous injection), the duration of action is 6 to 8 h. For the same molecule, in data set [2], the “analgesic potency relative to meperidine” value is listed as “about 600 times” and the “analgesic potency relative to pentazocine” value was “about 200 times”. Also, in data set [3] (0.4 mg sublingual dose), the Cmax was 0.5 ± 0.06 ng/mL, the Tmax is 3.5 ± 0.667 h and the systemic availability is listed as 57.7±6%. Further, the Total plasma clearance entry in data set [3] (conscious postoperative patients) is “approximately 0.28 L/minute”. Also, the “mean peak plasma buprenorphine concentration” value in data set [3] (intramuscular second 0.3-mg dose 3 hours after initial intravenous dose) was “about 3.6 ng/mL”. Moreover, in data set [3] (intramuscular second 0.3-mg dose, after about 3 hours), the plasma concentration result is given as “about 0.4 ng/mL”. The plasma concentration result in data set [3] (intravenous about 0.3 mg, after about 5 minutes) is recorded as “about 9 ng/mL”. In addition, the plasma concentration entry in data set [3] (intravenous about 0.3 mg, after about 3 hours) was “about 0.4 ng/mL”. For the same molecule, in data set [3] (setting [4]), the “mean peak plasma drug concentration” value is given as “about 18 ng/mL” and the “time of peak plasma concentration” value was at most 2 min.
As for `CO[C@@]12CCC3(C[C@@H]1C(C)(O)C(C)(C)C)[C@H]1Cc4ccc(O)c5c4[C@@]3(CCN1CC1CC1)[C@H]2O5` (stereo partly drawn) [Buprenorphine base, (5α,7α(S)-17-cyclopropyl-methyl)-α-(1,1-dimethylethyl)-4,5-epoxy-18,19-dihydro-3-hydroxy-6-methoxy-α-methyl-6,14-ethenomorphinan-7-methanol], in the data set with male Sprague-Dawley rats, the Analgesic duration was 48; 48; 50 h and the “duration of analgesic action” value is 48 to 50 h. Also, in the data set with male Sprague-Dawley rats (sc), the Analgesic duration was 48; 50; 48 h and the duration of action fell in the range of 48 to 50 h.
With `CO[C@@]12CC[C@@]3(C[C@@H]1[C@](C)(O)C(C)(C)C)[C@H]1Cc4ccc(O)c5c4[C@@]3(CCN1CC1CC1)[C@H]2O5.Cl` [Buprenorphine HCl, buprenorphine hydrochloride], the “mean duration of analgesia” value in data set [1] (single intramuscular or intravenous dose of 0.2 to 0.3 mg or 2 to 4 μg/kg) is “six”. In the data set with male Sprague-Dawley rats, the Analgesic duration is listed as 5 h and the “duration of analgesic action” value fell in the range of 3 to 5 h.
